ChEMBL document CHEMBL1127353, “Nonpeptidic inhibitors of human leukocyte elastase. 2. Design, synthesis, and in vitro activity of a series of 3-amino-6-arylopyridin-2-one trifluoromethyl ketones” (J Med Chem, 1994)

Each compound was assayed against T1, Neutrophil elastase (Homo sapiens, UniProt P08246) (assay: Tested for inhibitory activity against human leukocyte elastase(HLE) enzyme).
T1 sequence (P08246 whole entry): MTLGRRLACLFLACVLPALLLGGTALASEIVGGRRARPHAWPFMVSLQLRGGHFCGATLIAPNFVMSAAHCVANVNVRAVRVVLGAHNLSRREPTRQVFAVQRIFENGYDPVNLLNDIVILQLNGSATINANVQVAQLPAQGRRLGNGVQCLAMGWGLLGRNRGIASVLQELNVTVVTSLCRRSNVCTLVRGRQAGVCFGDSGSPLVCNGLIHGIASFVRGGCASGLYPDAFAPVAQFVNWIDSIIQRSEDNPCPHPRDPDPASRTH

Compound | Ki [nM]
CC(C)C(NC(=O)Cn1c(Cc2ccccc2)ccc(NC(=O)OCc2ccccc2)c1=O)C(=O)C(F)(F)F (stereo not drawn) | 66
CC(C)C(NC(=O)Cn1c(-c2cccc(OC(C)(C)C)c2)ccc(NC(=O)OCc2ccccc2)c1=O)C(=O)C(F)(F)F (stereo not drawn) | 4.4
CC(C)C(NC(=O)Cn1c(-c2ccc(Cl)cc2)ccc(NC(=O)OCc2ccccc2)c1=O)C(=O)C(F)(F)F (stereo not drawn) | 6.6
CC(C)C(NC(=O)Cn1ccc(-c2ccccc2)c(NC(=O)OCc2ccccc2)c1=O)C(=O)C(F)(F)F (stereo not drawn) | 320
CC(C)C(NC(=O)Cn1c(-c2cccc(C(=O)O)c2)ccc(NC(=O)OCc2ccccc2)c1=O)C(=O)C(F)(F)F (stereo not drawn) | 32
CC(C)C(NC(=O)Cn1c(-c2cccnc2)ccc(NC(=O)OCc2ccccc2)c1=O)C(=O)C(F)(F)F (stereo not drawn) | 9.1
Cc1ccc(-c2ccc(NC(=O)OCc3ccccc3)c(=O)n2CC(=O)NC(C(=O)C(F)(F)F)C(C)C)cc1 (stereo not drawn) | 31
CC(C)C(NC(=O)Cn1c(-c2ccccc2Cl)ccc(NC(=O)OCc2ccccc2)c1=O)C(=O)C(F)(F)F (stereo not drawn) | 11
